Results taken from patent publication US11407736B2 (priority 2019, dated 2022).
Where a name gives a salt, the structure may show the parent alone. Read-outs that look alike come from different tables or passages of the source.

What was measured:
RIPK1 = RIPK1 (Homo sapiens (Human), UniProt Q13546); assay: RIPK1 ADP-Glo biochemical kinase assay
Experimental: The final reaction volume was 5.0ul.
Adding 5 μl of ADP-Glo™ terminated the reaction.

L929 cells = assay: L929 cell necroptosis assay (TNFa + zVAD, CellTiter-Glo); format: cell-based, murine
Procedure, shortened: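 Necroptosis was read as CellTiter-Glo luminescence 18 hours after TNFa stimulation at 37° C, 5% CO2. Prior to that, L929 cells (10K/well, plated 18 h) received fresh medium with 40 uM zVAD-fmk plus 4-fold serially diluted compound.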

U937 cells = assay: U937 cell necroptosis assay (TNFa + zVAD, CellTiter-Glo); format: cell-based, human
Procedure, shortened: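 Necroptosis was induced with TNFa at 2 ng/mL final for 18 h at 37 °C, following 1 h compound pre-incubation in the presence of zVAD-fmk (60 uM for U937 plating medium, 40 uM for L929 medium). Luminescent CellTiter-Glo signal gave relative cell survival.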

[1] = read-out: RIPK1 ADP-Glo Kinase (IC50)
[2] = Mus musculus, L929, L929 cells, TNFa + zVAD, read-out: L929-CTG-recovery, L929, TNFa + zVAD (IC50)
[3] = Homo sapiens, U-937, U937 cells, TNFa + zVAD, read-out: U937 Zvad TNF CTG Recovery, U937, TNFa + zVAD (IC50)
[4] = L929 cells, TNFa + zVAD, read-out: L929-CTG-recovery, L929, TNFa + zVAD (IC50)
[5] = U937 cells, TNFa + zVAD, read-out: U937 Zvad TNF CTG Recovery, U937, TNFa + zVAD (IC50)

RIPK1, sequence (Q13546 whole entry, species assumed): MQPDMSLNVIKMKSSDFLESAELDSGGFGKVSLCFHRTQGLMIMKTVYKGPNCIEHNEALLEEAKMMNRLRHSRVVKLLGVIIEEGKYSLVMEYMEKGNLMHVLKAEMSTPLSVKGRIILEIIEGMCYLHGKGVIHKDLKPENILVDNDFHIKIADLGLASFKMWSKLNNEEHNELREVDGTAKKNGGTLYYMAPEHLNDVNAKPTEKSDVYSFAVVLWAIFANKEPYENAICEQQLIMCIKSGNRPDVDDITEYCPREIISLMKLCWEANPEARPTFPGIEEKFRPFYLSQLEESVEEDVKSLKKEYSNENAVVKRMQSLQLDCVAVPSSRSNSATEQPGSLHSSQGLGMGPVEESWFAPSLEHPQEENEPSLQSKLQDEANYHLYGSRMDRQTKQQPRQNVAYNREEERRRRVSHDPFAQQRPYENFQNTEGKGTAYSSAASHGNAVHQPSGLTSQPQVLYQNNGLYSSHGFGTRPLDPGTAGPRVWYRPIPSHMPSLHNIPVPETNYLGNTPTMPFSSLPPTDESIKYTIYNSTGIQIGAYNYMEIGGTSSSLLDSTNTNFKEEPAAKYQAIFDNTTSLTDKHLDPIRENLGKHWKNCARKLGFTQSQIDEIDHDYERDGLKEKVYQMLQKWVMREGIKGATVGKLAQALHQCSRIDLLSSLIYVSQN

Structure (SMILES)	IC50 (RIPK1; [1]) [nM]	IC50 (L929 cells; [2]) [nM]	IC50 (U937 cells; [3]) [nM]	other results
CN1C(=O)[C@@H](NC(=O)c2cc(OC3CCCC3)ccn2)COc2ccc(C#CC3(O)COC3)cc21 [Compound I-157, (S)-4-(cyclopentyloxy)-N-(7-((3-hydroxyoxetan-3-yl)ethynyl)-5-methyl-4-oxo-2,3,4,5-tetrahydrobenzo[b][1,4]oxazepin-3-yl)picolinamide]	31.6	5160	25.5	
CN1CCN(C(C)(C)C#Cc2ccc3c(c2)N(C)C(=O)[C@@H](NC(=O)c2cc(Oc4ccccc4)ccn2)CO3)CC1 [Compound I-158, (S)—N-(5-methyl-7-(3-methyl-3-(4-methylpiperazin-1-yl)but-1-yn-1-yl)-4-oxo-2,3,4,5-tetrahydrobenzo[b][1,4]oxazepin-3-yl)-4-phenoxypicolinamide]		1640	9.5	IC50 (RIPK1): 14.7 nM
COC(=O)C#Cc1ccc2c(c1)N(C)C(=O)[C@@H](NC(=O)c1cc(Oc3ccccc3)ccn1)CO2 [Compound I-159, Methyl (S)-3-(5-methyl-4-oxo-3-(4-phenoxypicolinamido)-2,3,4,5-tetrahydrobenzo[b][1,4]oxazepin-7-yl)propiolate]	17.5	16100	21	
CC(C)[C@H](N)C(=O)OC1(C#Cc2ccc3c(c2)N(C)C(=O)[C@@H](NC(=O)c2cc(Oc4ccccc4)ccn2)CO3)COC1 [Compound I-160, 3-(((S)-5-methyl-4-oxo-3-(4-phenoxypicolinamido)-2,3,4,5-tetrahydrobenzo[b][1,4]oxazepin-7-yl)ethynyl)oxetan-3-yl L-valinate]	25.3	44.2	0.9	
CC(C)[C@H](N)C(=O)OC1(C#Cc2ccc3c(c2)N(C)C(=O)[C@@H](NC(=O)c2cc(Oc4ccccc4)ccn2)CO3)COC1 [Compound I-164, 3-4(S)-5-methyl-4-oxo-3-(4-phenoxypicolinamido)-2,3,4,5-tetrahydrobenzo[b][1,4]oxazepin-7-yl)ethynyl)oxetan-3-yl L-valinate benzenesulfonic acid salt]	71.7			IC50 (L929 cells; [4]): 31.9 nM; IC50 (U937 cells; [5]): 0.7 nM
CN1C(=O)[C@@H](NC(=O)c2cc(Oc3ccccc3)ccn2)COc2ccc(C#CC3(OC(=O)CCC(=O)O)COC3)cc21 [Compound I-165, (S)-4-((3-((5-methyl-4-oxo-3-(4-phenoxypicolinamido)-2,3,4,5-tetrahydrobenzo[b][1,4]oxazepin-7-yl)ethynyl)oxetan-3-yl)oxy)-4-oxobutanoic acid 2-amino-2-(hydroxymethyl)propane-1,3-diol salt]	11.2			IC50 (L929 cells; [4]): 47.1 nM; IC50 (U937 cells; [5]): 0.9 nM
CN1C(=O)[C@@H](NC(=O)c2cc(Oc3ccccc3)ccn2)COc2ccc(C#CC(C)(C)N)cc21 [Compound I-167, (S)—N-(7-(3-amino-3-methylbut-1-yn-1-yl)-5-methyl-4-oxo-2,3,4,5-tetrahydrobenzo[b][1,4]oxazepin-3-yl)-4-phenoxypicolinamide hydrochloride]				IC50 (RIPK1; hydrochloride, read-out: RIPK1 ADP-Glo Kinase (IC50)): 17.5 nM; IC50 (L929 cells; read-out: L929-CTG-recovery, L929, TNFa + zVAD (IC50), L929 cells, TNFa + zVAD, hydrochloride): 1210 nM; IC50 (U937 cells; read-out: U937 Zvad TNF CTG Recovery, U937, TNFa + zVAD (IC50), U937 cells, TNFa + zVAD, hydrochloride): 5.3 nM
CN1C(=O)[C@@H](NC(=O)n2cc(Cc3ccc(F)cc3)cn2)COc2ccc(C#CC3(O)CCOCC3)cc21 [Compound I-175, (S)-4-(4-fluorobenzyl)-N-(7-((4-hydroxytetrahydro-2H-pyran-4-yl)ethynyl)-5-methyl-4-oxo-2,3,4,5-tetrahydrobenzo[b][1,4]oxazepin-3-yl)-1H-pyrazole-1-carboxamide]	27.8	107	9	
CC(=O)N1CC(F)(C#Cc2ccc3c(c2)N(C)C(=O)[C@@H](NC(=O)c2cc(Oc4ccccc4)ccn2)CO3)C1 [Compound I-191, (S)—N-(7-((1-acetyl-3-fluoroazetidin-3-yl)ethynyl)-5-methyl-4-oxo-2,3,4,5-tetrahydrobenzo[b][1,4]oxazepin-3-yl)-4-phenoxypicolinamide]	19.7	21.5	0.3	
CN[C@@H](C)C(=O)OC1(C#Cc2ccc3c(c2)N(C)C(=O)[C@@H](NC(=O)c2cc(Oc4ccccc4)ccn2)CO3)COC1 [Compound I-193]	55.3			IC50 (L929 cells; [4]): 7060 nM; IC50 (U937 cells; [5]): 361 nM
C[C@H](N)C(=O)OC1(C#Cc2ccc3c(c2)N(C)C(=O)[C@@H](NC(=O)c2cc(Oc4ccccc4)ccn2)CO3)COC1 [Compound I-194, 3-(((S)-5-methyl-4-oxo-3-(4-phenoxypicolinamido)-2,3,4,5-tetrahydrobenzo[b][1,4]oxazepin-7-yl)ethynyl)oxetan-3-yl L-alaninate trifluoroacetic acid salt]	18.6		0.6	IC50 (L929 cells; Mus musculus, L929 cells, TNFa + zVAD, read-out: L929-CTG-recovery, L929, TNFa + zVAD (IC50)): 32.5 nM
CC(C)N1CC(O)(C#Cc2ccc3c(c2)N(C)C(=O)[C@@H](NC(=O)c2cc(Oc4ccccc4)ccn2)CO3)C1 [Compound I-195, (S)—N-(7-((3-hydroxy-1-isopropylazetidin-3-yl)ethynyl)-5-methyl-4-oxo-2,3,4,5-tetrahydrobenzo[b][1,4]oxazepin-3-yl)-4-phenoxypicolinamide]	15.3			IC50 (L929 cells; Mus musculus, L929, read-out: L929-CTG-recovery, L929, TNFa + zVAD (IC50), L929 cells, TNFa + zVAD): 268 nM; IC50 (U937 cells; Homo sapiens, U-937, read-out: U937 Zvad TNF CTG Recovery, U937, TNFa + zVAD (IC50), U937 cells, TNFa + zVAD): 1.1 nM
CN1C(=O)[C@@H](NC(=O)c2cc(Oc3ccccc3)ccn2)COc2ccc(C#Cc3cn(C)cn3)cc21 [Compound I-203, (S)—N-(5-methyl-7-((1-methyl-1H-imidazol-4-yl)ethynyl)-4-oxo-2,3,4,5-tetrahydrobenzo[b][1,4]oxazepin-3-yl)-4-phenoxypicolinamide]	23.4	4	0.4	
CN1C(=O)[C@@H](NC(=O)c2cc(Oc3ccccc3)ccn2)COc2ccc(C#CC(C)(C)N3CCOCC3)cc21 [Compound I-206, (S)—N-(5-Methyl-7-(3-methyl-3-morpholinobut-1-yn-1-yl)-4-oxo-2,3,4,5-tetrahydrobenzo[b][1,4]oxazepin-3-yl)-4-phenoxypicolinamide]		41.5	0.6	IC50 (RIPK1): 55.6 nM
CN1C(=O)[C@@H](NC(=O)c2cc(Oc3ccccc3)ccn2)COc2ccc(C#CC3(O)CCS(=O)(=O)CC3)cc21 [Compound I-207, (S)—N-(7-((4-Hydroxy-1,1-dioxidotetrahydro-2H-thiopyran-4-yl)ethynyl)-5-methyl-4-oxo-2,3,4,5-tetrahydrobenzo[b][1,4]oxazepin-3-yl)-4-phenoxypicolinamide]	27.9	116	0.5	
CN1C(=O)[C@@H](NC(=O)c2cc(Oc3ccccc3)ccn2)COc2ccc(C#CC3(O)C[S+]([O-])C3)cc21 (stereo partly drawn) [Compound I-208, (S)—N-(7-((3-Hydroxy-1-oxidothietan-3-yl)ethynyl)-5-methyl-4-oxo-2,3,4,5-tetrahydrobenzo[b][1,4]oxazepin-3-yl)-4-phenoxypicolinamide]	17.2	97.5	0.6	
CN1C(=O)[C@@H](NC(=O)c2cc(Oc3ccccc3)ccn2)COc2ccc(C#CC(C)(C)N3CCCC3)cc21 [Compound I-210, (S)—N-(5-Methyl-7-(3-methyl-3-(pyrrolidin-1-yl)but-1-yn-1-yl)-4-oxo-2,3,4,5-tetrahydrobenzo[b][1,4]oxazepin-3-yl)-4-phenoxypicolinamide]	28.6	470	4.2	
CN1C(=O)[C@@H](NC(=O)n2cc(Cc3ccccc3)cn2)COc2ccc(C#CC(C)(C)C)cc21 [Compound I-212, (S)-4-Benzyl-N-(7-(3,3-dimethylbut-1-yn-1-yl)-5-methyl-4-oxo-2,3,4,5-tetrahydrobenzo[b][1,4]oxazepin-3-yl)-1H-pyrazole-1-carboxamide]	154	267	4.3	
CN1C(=O)[C@@H](NC(=O)n2cc(Cc3ccccc3)cn2)COc2ccc(C#CC(C)(C)O)cc21 [Compound I-213, (S)-4-Benzyl-N-(7-(3-hydroxy-3-methylbut-1-yn-1-yl)-5-methyl-4-oxo-2,3,4,5-tetrahydrobenzo[b][1,4]oxazepin-3-yl)-1H-pyrazole-1-carboxamide]	35.2	45.5	1	
CN1C(=O)[C@@H](NC(=O)n2cc(Cc3ccccc3)cn2)COc2ccc(C#Cc3cccnc3)cc21 [Compound I-214, (S)-4-Benzyl-N-(5-methyl-4-oxo-7-(pyridin-3-ylethynyl)-2,3,4,5-tetrahydrobenzo[b][1,4]oxazepin-3-yl)-1H-pyrazole-1-carboxamide]	76.2	352	4	
CN1C(=O)[C@@H](NC(=O)n2cc(Cc3ccccc3)cn2)COc2ccc(C#Cc3ccccn3)cc21 [Compound I-215, (S)-4-Benzyl-N-(5-methyl-4-oxo-7-(pyridin-2-ylethynyl)-2,3,4,5-tetrahydrobenzo[b][1,4]oxazepin-3-yl)-1H-pyrazole-1-carboxamide]	32.1	20.9	0.3	
